Test results from patent publication US4908452A, “Process for preparing nitriles” (Merck & Co., Inc., priority 1987, dated 1990).

Test system: Factor XIIIa
Assay: Factor XIIIa inhibitor assay (14C-putrescine incorporation into N,N-dimethyl-casein)
Assay type: biochemical, human
Description: The Factor XIIIa inhibitor activity may be determined by an assay described in Methods in Enzymology, Vol. 45, Ch 15, pages 177-191 (1976) and using Factor XIII isolated from human plasma. Briefly, the assay is carried out by adding a substrate mixture of ^14 C-putrescine and N,N-dimethyl-casein to an Factor XIII assay mixture previously prepared by adding thrombin and dithiothreitol to Factor XIII in glycerol/water and tris(hydroxymethyl)aminomethane hydrochloride and then adding calcium ions, thereafter, incubating at 37° for 20 minutes, withdrawing samples to a filter disk, precipitating the casein with trichloracetic acid and then counting to determine the extent of incorporation of inhibitor of ^14 C-putrescine in casein. The result for 3-(1-oxo-4,7-nonadienyl)-oxiranecarbonitrile was 60 percent inhibition at 3 mM.

Structure (SMILES): C/C=C/C/C=C/CCC(=O)[C@H]1O[C@H]1C#N [3-(1-oxo-4,7-nonadienyl)oxirane-carbonitrile]
- percent inhibition of Factor XIIIa (at 3 mM, Factor XIII isolated from human plasma, 37° for 20 minutes): 60%
- inhibitory activity against Factor XIIIa (statement in words) (plasma transglutaminase enzyme): inhibitory activity against Factor XIIIa
